PubChem BioAssay (NCI)
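Briefly, cells in 96-well plates were exposed to five compound concentrations for 48 h, and endpoints were estimated by linear interpolation. GI50 is the concentration that inhibits growth by half. TGI: concentration producing complete growth inhibition.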

Assays:
Assay in all cases: inhibition of tumour cell growth, NCI panel, 48 h
[1] = test system: 786-0 renal
[2] = test system: HCC-2998 colon
[3] = test system: HOP-62 NSCLC
[4] = test system: K-562 leukemia
[5] = test system: KM12 colon
[6] = test system: NCI-H460 lung
[7] = test system: OVCAR-3 ovarian
[8] = test system: SK-MEL-28 melanoma
[9] = test system: SNB-75 CNS
[10] = test system: SR leukemia

Row | Structure (SMILES) | TGI [1] | TGI [2] | TGI [3] | TGI [4] | TGI [5] | TGI [6] | TGI [7] | TGI [8] | TGI [9] | TGI [10] | GI50 [4] | GI50 [5] | GI50 [10]
1 | CC(=O)N1CCN(CCCCN2c3ccccc3Sc3cc(N=[N+]=[N-])ccc32)CC1 | 29.5 µM | 28.5 µM | 27.4 µM | 31.3 µM | 28.2 µM | 28.1 µM | 25.3 µM | 33.4 µM | 26.2 µM | 26.5 µM |  |  | 
2 | COc1ccc(C2NC3=C(CCCC3)N2)cc1 | > 100 µM | > 100 µM | > 100 µM |  | > 100 µM | > 100 µM | > 100 µM | > 100 µM | > 100 µM | > 100 µM |  |  | 
3 | N#Cc1c(O)c(C=O)c(=O)n2c1[nH]c1ccccc12 | > 100 µM | > 100 µM | > 100 µM | > 100 µM | > 100 µM | > 100 µM | > 100 µM | > 100 µM | > 100 µM | > 100 µM |  |  | 
4 | COc1cc(C2c3cc4c(cc3OC(NNc3ccccc3)C2C)OCO4)cc(OC)c1O (centres undefined) | 15.6 µM | 2.87 µM | 33.1 µM | 12.4 µM | 12 µM | 17.7 µM | 14.8 µM | 21.3 µM | 7.56 µM | 29.7 µM |  |  | 
5 | COc1cc(C(=O)N(C(=O)N2CCCCC2)c2ccccc2)cc(OC)c1OC | > 100 µM | > 100 µM | > 100 µM | > 100 µM | > 100 µM | > 100 µM | > 100 µM | > 100 µM | > 100 µM | > 100 µM |  |  | 
6 | COc1cc(/C=C/c2ccc(S(N)(=O)=O)cc2)cc(OC)c1 | 50.5 µM | 38.1 µM | 62.7 µM | 76.7 µM | 57.6 µM | 42.9 µM | 33.2 µM | 56.8 µM | 53.1 µM | 38 µM | 28.7 µM | 20.8 µM | 19.7 µM
7 | O=C1c2c(F)c(F)c(F)c(F)c2SC2=Nc3cccc4cccc(c34)N12 | 16.9 µM | 28.5 µM | 27.2 µM | 4.49 µM | 10.2 µM | 29.3 µM | 7.58 µM | 15.9 µM | 25.5 µM | 15.2 µM |  |  | 
8 | O=C(NCCCc1cn[nH]c(=O)n1)c1cccc2nc3ccccc3nc12 | > 100 µM | > 100 µM | > 100 µM | > 100 µM | > 100 µM | > 100 µM | > 100 µM | > 100 µM |  | > 100 µM |  |  | 
9 | O=C(CBr)NCCc1c[nH]c2ccccc12 | 2.74 µM | 24.9 µM |  | 8.41 µM | 3.85 µM | 15 µM | 4.09 µM | 11.3 µM | 3.12 µM | 1 µM |  |  | 
10 | Nc1ccn(CCCC(c2ccccc2)P(=O)(O)O)c(=O)n1 (centres undefined) | > 100 µM | > 100 µM | > 100 µM | > 100 µM | > 100 µM | > 100 µM | > 100 µM | > 100 µM | > 100 µM | > 100 µM |  |  | 
11 | O=c1cc(NNc2cccc(F)c2)[nH]c(=S)[nH]1 | > 100 µM | > 100 µM | > 100 µM | > 100 µM | > 100 µM | > 100 µM | > 100 µM | > 100 µM |  | > 100 µM |  |  | 
12 | CCOC(=O)c1cc([N+](=O)[O-])cc([N+](=O)[O-])c1Sc1ncnc2nc[nH]c12 | 2.07 µM | 30.2 µM | 24.5 µM | > 100 µM | 18.1 µM | 33.9 µM | 2.45 µM | 11.2 µM | 25.1 µM | > 100 µM |  |  | 
13 | CC1(C)OC2OC(C(=O)c3ccccc3)C3OC(C)(C)OC3C2O1 (centres undefined) | > 100 µM | > 100 µM | > 100 µM | > 100 µM | > 100 µM | > 100 µM | > 100 µM |  | > 100 µM | > 100 µM |  |  | 
14 | CCOC(=O)C1=C(O)c2ccc(OC)cc2C(=O)C1=O | > 100 µM | > 100 µM | > 100 µM | > 100 µM | > 100 µM | > 100 µM | > 100 µM | > 100 µM | > 100 µM | > 100 µM |  |  | 
15 | COc1ccc(Oc2nc3c(N)cc(C(F)(F)F)cc3nc2-c2ccccc2)cc1 | 56.4 µM | > 100 µM | 49.5 µM | > 100 µM | 31.6 µM | 57.8 µM |  | > 100 µM | 40.6 µM | > 100 µM |  |  | 
16 | COc1ccc(/C=C(\C2=NC(=O)CS2)c2nc3ccccc3[nH]2)cc1 |  | 49.7 µM | > 100 µM | > 100 µM | > 100 µM | > 100 µM | 52.3 µM | > 100 µM | 71.6 µM | > 100 µM |  |  | 
17 | COC(=O)C1Cc2c([nH]c3ccccc23)-c2[nH]c3ccccc3c2CC(NC(C)=O)C(=O)N2CCCC2C(=O)N1 (centres undefined) | > 100 µM | > 100 µM | > 100 µM | > 100 µM |  | > 100 µM | > 100 µM | > 100 µM | > 100 µM | > 100 µM |  |  | 
18 | NCCN(CCN)/[N+]([O-])=N/O | > 100 µM | > 100 µM | > 100 µM | > 100 µM | > 100 µM | > 100 µM | > 100 µM | > 100 µM | > 100 µM | > 100 µM |  |  | 
19 | Cc1cc2c(cc1-c1cc3c(cc1C)C(C(C)C)=C(O)C(=O)/C3=C\Nc1ccccn1)/C(=C/Nc1ccccn1)C(=O)C(O)=C2C(C)C | > 100 µM | 60.2 µM |  | > 100 µM | 73.6 µM | > 100 µM | > 100 µM | > 100 µM | > 100 µM | > 100 µM |  |  | 
20 | COc1c(C)c(C/C=C(\C)CCCCO)c(OC)c2ccccc12 | > 100 µM | 62.5 µM |  | 67.1 µM | 54.9 µM | 37.8 µM | > 100 µM |  | > 100 µM | 55.6 µM |  |  | 
21 | O=P(Nc1cccc(Cl)c1)(Oc1ccccc1)N(CCCl)CCCl (centres undefined) |  | 28.6 µM | 31.1 µM | > 100 µM | 28.6 µM |  | 35.7 µM | 30.5 µM | 30.4 µM | > 100 µM |  |  | 
22 | CN(C)C1(c2cc3ccccc3s2)CCCCC1 | 49.8 µM | 57 µM | > 100 µM | 65.8 µM | > 100 µM | > 100 µM | > 100 µM |  | > 100 µM | 46.5 µM |  |  | 
